Experimental data published in article PMC6010071, “Blocking oestradiol synthesis pathways with potent and selective coumarin derivatives” (Journal of Enzyme Inhibition and Medicinal Chemistry, 2018).

How the values were obtained:
recombinant human HSD2 = molecular target: T1, recombinant human HSD2 (Homo sapiens, UniProt P37059); test: HSD2 inhibition, HPLC assay of [3H]-E2 to [3H]-E1 conversion; type: biochemical; settings: read-out: HSD2 inhibition at 1 µM
T1 construct: made in house; host or cells: Sf9 insect cells
T1 sequence (P37059 1-387): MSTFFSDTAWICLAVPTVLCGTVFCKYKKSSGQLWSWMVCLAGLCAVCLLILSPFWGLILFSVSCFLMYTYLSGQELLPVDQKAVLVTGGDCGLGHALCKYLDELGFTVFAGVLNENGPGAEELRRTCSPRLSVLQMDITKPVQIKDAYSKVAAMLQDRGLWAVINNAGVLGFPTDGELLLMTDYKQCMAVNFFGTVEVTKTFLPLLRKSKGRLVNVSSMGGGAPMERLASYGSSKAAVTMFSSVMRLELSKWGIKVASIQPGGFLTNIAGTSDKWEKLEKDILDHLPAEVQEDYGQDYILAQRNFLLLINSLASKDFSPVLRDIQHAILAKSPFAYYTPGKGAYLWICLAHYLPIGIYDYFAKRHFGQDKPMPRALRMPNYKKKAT
Experimental: The inhibition was determined by HPLC using recombinant human HSD1 and HSD2 proteins as described in a prior study. In short, recombinant human HSD1 and HSD2 were produced in Sf9-insect cells. […]. After incubation, the reaction was stopped by addition of […] 10% trichloroacetic acid per sample. After incubation the substrate and the product of enzymatic conversion [3H]-E1 and [3H]-E2 were separated and quantified by HPLC (Alliance 2790, Waters, Milford, MA) connected to an online counter (Packard Flow Scintillation Analyser; Perkin Elmer Inc., Waltham, […]). The ratio of [3H]-E1 converted to [3H]-E2 or vice versa determines the conversion percentage of the samples. Inhibition was measured in three concentrations (100 nM, 1, and 5 µM) in order to follow the progression of inhibition efficiencies. Inhibition efficiencies of the tested inhibitors were calculated by comparing the conversion percentages of the samples including inhibitors with those of conversion controls (without inhibitors).

ERα = molecular target: T2, ERα (Homo sapiens, UniProt P03372); test: PolarScreen ER Alpha Competitor Assay (fluorescence polarisation); type: binding; settings: for IC50: 25 nM ERα, 4.5 nM fluormone, read-out: ER binding pIC50 (converted)
T2 construct: purchased Life Technologies, Carlsbad, CA
T2 sequence (P03372 1-595): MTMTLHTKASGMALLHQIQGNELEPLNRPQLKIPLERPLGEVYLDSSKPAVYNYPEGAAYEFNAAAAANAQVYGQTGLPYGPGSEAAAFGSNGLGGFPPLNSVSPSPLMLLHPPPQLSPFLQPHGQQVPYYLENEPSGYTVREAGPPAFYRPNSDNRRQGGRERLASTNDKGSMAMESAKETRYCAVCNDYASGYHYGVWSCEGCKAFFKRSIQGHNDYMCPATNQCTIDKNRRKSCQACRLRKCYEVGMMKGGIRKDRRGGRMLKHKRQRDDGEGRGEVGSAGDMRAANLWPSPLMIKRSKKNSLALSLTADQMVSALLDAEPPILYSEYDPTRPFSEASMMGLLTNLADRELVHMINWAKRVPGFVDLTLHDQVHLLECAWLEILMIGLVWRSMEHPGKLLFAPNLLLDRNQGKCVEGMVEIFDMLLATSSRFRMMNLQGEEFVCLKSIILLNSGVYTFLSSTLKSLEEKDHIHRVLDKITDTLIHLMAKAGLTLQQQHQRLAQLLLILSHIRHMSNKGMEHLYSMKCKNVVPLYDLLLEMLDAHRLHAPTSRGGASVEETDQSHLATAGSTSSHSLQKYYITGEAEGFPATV
Experimental: The pIC50 values of the molecules (Table 1) were measured using green PolarScreen™ ER Alpha Competitor Assay (Life Technologies, Carlsbad, CA) kit, following the protocol provided by the manufacturer as previously described. The final concentration of the molecules ranged between 0.0007 and 10,000 nM in the prepared dilution series. […] After mixing the assay plate, it was incubated for 2 h at the room temperature.

[1] = molecular target: T3, Aromatase (CYP19A1), human placental microsomes (Homo sapiens, UniProt P11511); test: Aromatase activity, [3H]-H2O release from [3H]-androstenedione; type: biochemical; settings: 50 nM [3H]-androstenedione; inhibitor 60–1000 nM; read-out: Aromatase inhibition ∼ pIC50 (converted)
T3 construct: by using human placental microsomes; from tissue; host or cells: human placental microsomes
T3 sequence (P11511 1-503): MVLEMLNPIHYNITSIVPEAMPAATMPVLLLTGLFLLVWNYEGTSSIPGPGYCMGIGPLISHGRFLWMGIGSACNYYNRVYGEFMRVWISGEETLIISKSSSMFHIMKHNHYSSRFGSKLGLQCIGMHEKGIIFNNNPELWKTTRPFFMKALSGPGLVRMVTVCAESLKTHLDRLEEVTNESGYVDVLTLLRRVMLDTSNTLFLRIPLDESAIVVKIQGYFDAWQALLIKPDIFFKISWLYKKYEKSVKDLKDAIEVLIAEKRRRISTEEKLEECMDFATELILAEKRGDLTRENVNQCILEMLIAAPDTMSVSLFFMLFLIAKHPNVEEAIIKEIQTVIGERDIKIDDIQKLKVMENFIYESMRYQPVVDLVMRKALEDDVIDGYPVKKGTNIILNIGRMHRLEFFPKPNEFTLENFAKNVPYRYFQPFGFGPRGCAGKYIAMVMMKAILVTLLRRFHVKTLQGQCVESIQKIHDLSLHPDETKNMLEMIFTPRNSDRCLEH
Experimental: Aromatase (CYP19A1) activity was measured as described previously[22] by using human placental microsomes and 50 nM [3H]-androstenedione as a substrate and inhibitor concentrations in the range of 60–1000 nM. Aromatase activities were measured as released [3H]-H2O in Optiphase Hisafe 2 scintillation liquid (Perkin Elmer, Waltham, MA) with a Wallac 1450 MicroBeta Trilux scintillation counter (Perkin Elmer, Waltham, MA). As a positive control for aromatase inhibition, 1 µM finrozole (generous gift from Olavi Pelkonen, University of Oulu, Finland) was used.

| SMILES | inhibition at 1 µM (recombinant human HSD2) | IC50 (ERα) | IC50 [1] | ER inhibition (in words) (ERα) |
| --- | --- | --- | --- | --- |
| COc1ccc2oc(=O)c(-c3ccc(O)c(F)c3)cc2c1 [Compound 7, 3–(3-fluoro-4-hydroxyphenyl)-6-methoxy-2H-chromen-2-one] | 13% | > 10 µM | > 1 µM | – |
| COc1ccc2cc(-c3ccc(O)c(F)c3)c(=O)oc2c1 [Compound 6, 3–(3-fluoro-4-hydroxyphenyl)-7-methoxy-2H-chromen-2-one] | 31% | 0.708 µM | > 1 µM | reasonable ER inhibition |
| O=c1oc2ccc(Cl)cc2cc1-c1cccc(O)c1 [Compound 4, 6-chloro-3–(3-hydroxyphenyl)-2H-chromen-2-one] | 16% | > 10 µM | > 1 µM | – |
| O=c1oc2ccccc2cc1-c1cccc(O)c1 [Compound 3, 3–(3-hydroxyphenyl)-2H-chromen-2-one] | 42% | > 10 µM | > 1 µM | – |
| O=c1oc2ccc(O)cc2cc1-c1ccc(O)cc1 [Compound 2, 6-hydroxy-3–(4-hydroxyphenyl)-2H-chromen-2-one] | 7% | > 10 µM | > 1 µM | – |
| COc1ccc(-c2cc3cccc(O)c3oc2=O)cc1 [Compound 1, 8-hydroxy-3–(4-methoxyphenyl)-2H-chromen-2-one] | 27% | > 10 µM | > 1 µM | – |
